Data from US20250109127A1, “METHODS OF USE OF PHENOXYPROPYLAMINE COMPOUNDS TO TREAT DEPRESSION” (Minerva Neurosciences, Inc., priority 2013, published 2025).
“Also recorded” adds a separate entry of the source. Counter-ions that a name gives are not always drawn.

What was measured:
[1] = system: animals exposed to chronic mild stress; assay: Chronic mild stress (CMS) model, consumption of 1% sucrose solution; type: in vivo, rat; conditions: for effect on sucrose intake one week after cessation of treatments: stressed animals
Protocol: Male Wistar rats (Charles River, Germany) were brought into the laboratory one month before the start of the experiment. Except as described below, the animals were singly housed with food and water freely available, and were maintained on a 12-h light/dark cycle, in a constant temperature (22±2° C.) and humidity (50±5%) conditions.
After a period of 2 weeks of adaptation to laboratory and housing conditions, the animals were first trained to consume a 1% sucrose solution; training consisted of nine 1 h baseline tests in which sucrose was presented, in the home cage, following 14 h food and water deprivation; the sucrose intake was measured by weighing pre-weighed bottles containing the sucrose solution, at the end of the test. Subsequently, the sucrose consumption was monitored, under similar conditions, at weekly intervals throughout the whole experiment.
On the basis of their sucrose intakes in the final baseline test, the animals were divided into two matched groups. One group of animals was subjected to the chronic mild stress procedure for a period of 8 consecutive weeks. Each week of stress regime consisted of: two periods of food or water deprivation, two periods of 45 degree cage tilt, two periods of intermittent illumination (lights on and off every 2 h), two periods of soiled cage (250 ml water in sawdust bedding), one period of paired housing, two periods of low intensity stroboscopic illumination (150 flashes/min), and three periods of no stress. All stressors were 10-14 h of duration and were applied individually and continuously, day and night. Control animals were housed in separate rooms and had no contact with the stressed animals. They were deprived of food and water for the 14 h preceding each sucrose test, but otherwise food and water were freely available in the home cage.
On the basis of their sucrose intakes following initial 2 weeks of stress, both the stressed and the control groups were each divided further into matched subgroups (n=8), and for subsequent five weeks they received once daily intraperitoneal injections of vehicle (0.5% hydroxypropylmethylcellulose, 1 ml/kg), SON-117 (0.001, 0.01, 0.1 and 1 mg/kg) or imipramine (10 mg/kg) as the reference treatment. The drugs were administered at approx. 10:00 AM and the weekly sucrose tests were carried out 24 h following the last drug injections. After five weeks all treatments were terminated and one additional sucrose test was carried out after one week of withdrawal. Stress was continued throughout the period of treatment and withdrawal.
(§1) After completion of the administration and withdrawal period, all control and stressed animals were placed in an open field (100 cm in diameter, 35 cm high) and allowed to explore two identical objects (cylinder-shaped object with walls painted white, 7 cm in diameter, 11 cm high) for the time required to complete 15 s of exploration of either object. For the retention trial conducted one hour later, one of the objects presented previously was replaced with a novel object (prism-shaped object with walls painted black, 5 cm wide, 14 cm high). Rats were returned to the open field for 5 min and the duration of exploration (i.e. sitting in close proximity to the objects, sniffing or touching them) of each object was measured separately by a trained observer. The data were calculated according to the following formula: [time of novel object exploration divided by time of novel plus familiar object exploration multiplied by 100]. The CMS and NOR data were analyzed by multiple analyses of variance with three between-subjects factors (stress/control, drug treatments and intakes in successive sucrose tests). The Fisher's LSD test was used for the post-hoc comparisons of means.

5-HTT = 5-HTT (Homo sapiens, UniProt P31645); assay: Receptor binding, 5-HTT
Sequence of 5-HTT (P31645 whole entry, species assumed): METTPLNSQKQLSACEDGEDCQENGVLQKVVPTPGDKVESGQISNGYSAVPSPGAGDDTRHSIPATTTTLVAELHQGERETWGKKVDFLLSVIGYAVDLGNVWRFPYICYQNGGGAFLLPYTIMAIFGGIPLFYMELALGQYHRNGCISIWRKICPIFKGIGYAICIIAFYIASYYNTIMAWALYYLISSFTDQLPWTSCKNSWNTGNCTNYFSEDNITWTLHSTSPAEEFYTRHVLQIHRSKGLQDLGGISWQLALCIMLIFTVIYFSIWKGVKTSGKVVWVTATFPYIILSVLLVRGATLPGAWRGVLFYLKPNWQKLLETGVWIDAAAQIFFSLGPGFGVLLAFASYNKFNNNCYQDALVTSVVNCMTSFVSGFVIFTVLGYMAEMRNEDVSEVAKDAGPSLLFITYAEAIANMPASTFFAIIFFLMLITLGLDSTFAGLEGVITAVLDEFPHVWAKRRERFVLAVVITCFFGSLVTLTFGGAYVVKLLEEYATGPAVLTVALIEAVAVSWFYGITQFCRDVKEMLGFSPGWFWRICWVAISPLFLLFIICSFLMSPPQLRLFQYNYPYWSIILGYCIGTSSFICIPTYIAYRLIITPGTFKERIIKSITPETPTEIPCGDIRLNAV

5-HT1A = molecular target: T1, 5-HT1A (Homo sapiens, UniProt P08908); assay: Receptor binding, 5-HT1A
T1 sequence (P08908 1-422): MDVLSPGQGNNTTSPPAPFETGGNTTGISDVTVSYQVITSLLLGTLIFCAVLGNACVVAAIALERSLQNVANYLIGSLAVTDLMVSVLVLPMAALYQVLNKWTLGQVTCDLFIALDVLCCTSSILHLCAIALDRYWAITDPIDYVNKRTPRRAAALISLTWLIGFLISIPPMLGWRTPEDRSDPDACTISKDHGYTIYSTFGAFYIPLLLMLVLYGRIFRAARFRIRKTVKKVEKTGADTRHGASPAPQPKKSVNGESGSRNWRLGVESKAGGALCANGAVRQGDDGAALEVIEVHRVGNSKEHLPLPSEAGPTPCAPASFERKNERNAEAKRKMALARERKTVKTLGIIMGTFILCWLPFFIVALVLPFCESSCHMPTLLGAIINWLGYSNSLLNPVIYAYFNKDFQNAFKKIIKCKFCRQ

5-HT1A, 5-HTT, 5-HT2A = assay: Electrophysiological studies; conditions: first 5-HT1A is presynaptic
[2] = system: animals exposed to chronic mild stress; assay: Novel object recognition test after CMS and treatment withdrawal; type: in vivo, rat
Source text: as §1

sleep EEG parameters = assay: Polysomnography / sleep EEG study; type: in vivo, human
Protocol: In this study, certain pharmacodynamic sleep parameters predictive of antidepressant activity were monitored and measured. […] Three doses of SON-117 were tested (1 mg, 3 mg, 7.5 mg). […] In an embodiment, SON-117 affected sleep. In an embodiment, SON-117 affected REM sleep.
[…] subjects were tested in a sleep study, where 23 subjects were dosed with SON-117 in amounts of 1 mg up to 7.5 mg; 12 were given a placebo; and 8 were given escitalopram at a dose of 20 mg. Sleep was recorded in individual sound-attenuated and comfortably furnished bedrooms. During bedtime hours subjects were recumbent and the lights are turned off. The polysomnographic montage consisted of 4 EEG channels (C3A2, O1A2, C4A1, and O2A1), bilateral electro-oculograms, and 2 submental electromyograms. The different sleep parameters were derived with the Hypnos software from the visual scoring of the recordings at 30 sec epochs according to Rechtschaffen and Kales (1968) rules. Sleep continuity parameters comprise both sleep initiation and sleep maintenance variables. Sleep architecture parameters, which include REM sleep parameters, comprise stages distribution variables documenting duration and proportion of the different sleep stages and sleep profile variables that provide an outline on the time course of the different sleep stages during the recording period. All night sleep EEG spectral analysis was carried out on the C3-A2 derivation by means a fast Fourrier transform algorithm. Epoch length was 2 seconds at a sampling rate of 256 Hz and truncating error was reduced by applying a Hanning window. Sleep visual scores of each 30-second epoch was synchronised with power density values in order to allow the analysis of power density within in specific period of time such as REM and non REM sleep.

Q: What does the source list for `Cc1nnc(-c2cc3c(OC[C@@H](O)CN4CCC(c5ccc(Cl)c(Cl)c5)CC4)cccc3o2)o1` [SON-117, (S)-1-(4-(3,4-dichlorophenyl)piperidino)-3-(2-(5-methyl-1,3,4-oxadiazol-2-yl)benzo(b)furan-4-yloxy)-2-propanol hydrochloride]?
A: dose at which rapid-onset normalization of sucrose intake was observed (as low as) ([1]; CMS model): 1 µg/kg; effect on sucrose intake one week after cessation of treatments ([1]; SON-117 0.001 mg/kg): maintained; time at which increase of sucrose consumption in stressed animals reached significance vs Week 0 ([1]; SON-117 0.001 and 0.01 mg/kg IP (only these doses significant vs Week 0)): first week; onset of action: enhancement of sucrose intakes reached statistical significance ([1]; SON-117 0.001 and 1.0 mg/kg): first week; effect on sucrose intake one week after cessation of treatments ([1]; SON-117 1 mg/kg): abolished; effectiveness in the CMS model ([1]; SON-117 0.01 and 0.1 mg/kg): less effective than imipramine; magnitude of action in the CMS model ([1]; SON-117 most active doses (0.001 and 1.0 mg/kg)): comparable to that of imipramine; sucrose intake in control animals, compared to vehicle ([1]; once daily IP for five weeks, imipramine 10 mg/kg, SON-117 all doses (0.001, 0.01, 0.1 and 1 mg/kg)): no significant effect; sucrose consumption in stressed animals, compared to vehicle ([1]; once daily IP for five weeks, imipramine 10 mg/kg, SON-117 all four doses (0.001-1 mg/kg), hydrochloride): significant effects; also recorded: enhanced; affinity, 5-HTT binding (5-HTT): high affinity; affinity, 5-HT1A receptor binding (5-HT1A): high affinity; order of effects in electrophysiological studies (5-HT1A, 5-HTT, 5-HT2A): 5-HT1A>5-HTT>5-HT2A>postsynaptic 5-HT1A; recognition index in stressed animals ([2]; SON-117 0.001, 0.01 and 0.1 mg/kg, one week after withdrawal): restored; effect against the CMS-induced deficit in the novel object recognition ([2]; SON-117 1 mg/kg, stressed animals): ineffective; recognition index in control animals ([2]; SON-117 all doses (0.001-1 mg/kg IP), one week after withdrawal): no significant effect; effect of discontinuation of dosing on sleep EEG parameters, including REM sleep (sleep EEG parameters; SON-117): no evidence; slow wave sleep (SWS) (sleep EEG parameters; SON-117 1 mg, day 1 and day 14, second third of the night, hydrochloride): could increase; also recorded: increased; REM sleep, REM density/activity (sleep EEG parameters; SON-117 repeated dosing, two highest dosages (3 mg, 7.5 mg), particularly 7.5 mg, hydrochloride): could have REM sleep promoting effect; also recorded: increased; sleep continuity and sleep architecture parameters (sleep EEG parameters; SON-117 three doses tested (1, 3, 7.5 mg)): largely not influenced
